“And” between values parts separate entries of the source, which are not always exact repeats. Identical values can stand only once. Like-named read-outs stand apart in the source and are kept apart here.
Assays:
caspase 8 = experiment: RT-PCR mRNA expression in MCF-7 cells, caspase 8; assay type: cell-based, human; conditions: MCF-7, treated at IC50 = 25.92 μM, 48 h
Experimental: (§1) The results are in accordance with the proposed apoptotic pathway for anticancer activity.
(§2) At the end of treatments, cells were collected, and total RNA was extracted using a RNeasy® Mini Kit (Qiagen, Hilden, Germany) according to the manufacturer’s instructions. cDNA synthesis was performed with 500 ng of RNA using the i-Script cDNA synthesis kit (Bio-Rad, Hercules, CA, USA) following the manufacturer’s instructions. Real-time (RT)-PCR reactions consisted of 25-µL Fluocycle®II SYBR® (Euroclone, Milan, Italy), 1.5 µL of both 10-µM forward and reverse primers, 3-µL cDNA, and 19 µL of H2O. All reactions were performed for 35 cycles using this temperature profile: 95 °C for 5 m (initial denaturation); 95 °C for […] (Denaturation), 55 °C for […] (Annealing), and 72 °C for […] (Extension). Then, The cycle threshold (Ct) values were collected and the relative folds of changes between all the samples. Primer used were listed in the Supplementary Files.

HepG2 = experiment: MTT cytotoxic assay, HepG2; assay type: cell-based; conditions: Homo sapiens, read-out: IC50 ± SD HepG2
Experimental: (§3) Crude extracts, in addition to six sterol compounds, were screened for their cytotoxic activities against four cancerous cell lines: HepG2, Hela, A549, and MCF-7 and a noncancerous breast (MCF-10A) cell line to test their safety using the MTT assay (Table 2). […] After fractionation and isolation of the pure compounds, six compounds were tested for their cytotoxicity. […] Additionally, it was safe against the normal cells, with IC50 ≥ 50.
(§4) Crude extract, together with six of the identified sterols, were screened for their cytotoxic activities against liver HepG2, breast MCF-7, and normal cells (MCF-10A), as well. According to the standard cell culture work, each cell line was cultured in a proper complete medium. The treatment of cells was performed with the crude extract and then, with the identified compounds for a 48-h incubation, and Fluorouracil (5-FU) was used as the standard. Percent of cell viability was calculated by the following formula: % cell viability = (Mean absorbance of tested compound)/(Mean absorbance in control) × 100. Then, IC50 in µM was calculated using GraphPad Prism 7.

antiapoptotic Bcl-2 gene = experiment: RT-PCR mRNA expression in MCF-7 cells, Bcl-2; assay type: cell-based, human; conditions: MCF-7, treated at IC50 = 25.92 μM, 48 h
Experimental: as §1, §2

BAX = experiment: RT-PCR mRNA expression in MCF-7 cells, BAX; assay type: cell-based, human; conditions: MCF-7, treated at IC50 = 25.92 μM, 48 h
Experimental: as §1, §2

MCF-7 cancer cells [1] = experiment: Annexin V/PI flow cytometric apoptosis/necrosis assessment; assay type: cell-based, human; conditions: MCF-7, treated at IC50 = 25.92 μM, 48 h
Text: (§5) Moreover, MCF-7 cancer cells after compound 1 treatment were subjected to DNA flow cytometry to analyse the cell cycle kinetics to determine the compound’s phase interference with the cell cycle. The study of the cell cycle is a crucial test showing the cell accumulation percentage in each growth phase with cytotoxic substances after treatment. […] Consequently, compound 1 induced pre-G1 and G2/M-phase cell cycle arrest and blocked the progression of MCF-7 cancer cells that deteriorated the genetic material.
(§6) Cell cycle analysis, as well as apoptotic assays, were performed in detail according to the previously described methods. Full methodologies of flow cytometric assays were provided in the Supplementary File.

MCF-7 = experiment: MTT cytotoxic assay, MCF-7; assay type: cell-based, human
Experimental: as §3, §4

caspase 3 = experiment: RT-PCR mRNA expression in MCF-7 cells, caspase 3; assay type: cell-based, human; conditions: MCF-7, treated at IC50 = 25.92 μM, 48 h
Experimental: as §1, §2

P53 gene = experiment: RT-PCR mRNA expression in MCF-7 cells, P53; assay type: cell-based, human; conditions: MCF-7, treated at IC50 = 25.92 μM, 48 h
Experimental: as §1, §2

caspase 9 = experiment: RT-PCR mRNA expression in MCF-7 cells, caspase 9; assay type: cell-based, human; conditions: MCF-7, treated at IC50 = 25.92 μM, 48 h
Experimental: as §1, §2

Normal Cells MCF-10A = experiment: MTT cytotoxic assay, normal cells MCF-10A; assay type: cell-based; conditions: Homo sapiens, pure compounds, 48-h incubation, n = 3, read-out: IC50 ± SD Normal Cells MCF-10A
Experimental: as §3, §4

MCF-7 cancer cells [2] = experiment: DNA content flow cytometry cell cycle analysis; assay type: cell-based, human; conditions: MCF-7, treated at IC50 = 25.92 μM, 48 h
Text: as §5, §6

A549 = experiment: MTT cytotoxic assay, A549; assay type: cell-based; conditions: Homo sapiens, read-out: IC50 ± SD A549
Experimental: as §3, §4

Hela = experiment: MTT cytotoxic assay, Hela; assay type: cell-based; conditions: Homo sapiens
Experimental: as §3, §4

[3] = HepG2, pure compounds, MTT, 48-h incubation, n = 3
[4] = Homo sapiens, MCF7, 48 h, pure compounds, MTT, 48-h incubation, n = 3, read-out: IC50 ± SD MCF-7
[5] = A549, pure compounds, MTT, 48-h incubation, n = 3
[6] = pure compounds, MTT, 48-h incubation, n = 3, read-out: IC50 ± SD Hela

CCCCCC/C=C\C/C=C\CCCCCCC(=O)OC[C@H]1O[C@@H](O[C@H]2CCC3(C)C(=CCC4C3CCC3(C)C(C(C)CCC(CC)C(C)C)CCC43)C2)[C@H](O)[C@@H](O)[C@@H]1O (stereo partly drawn) [Compound 1, (6’-O-octadeca-8″,11″-dienoyl)-sitosterol-3-O-β-D-glucoside] was tested, and the “caspase 8 mRNA level, fold change” value (caspase 8) was 1.9 fold and 1.9± 0.13 fold, the IC50 (HepG2; [3]) was 27.5 ± 1.04 µM and the “Bcl-2 mRNA level, fold change” value (antiapoptotic Bcl-2 gene) was “≈ 0.81 fold and 0.81± 0.05 fold”. For the same compound, the “BAX mRNA level, fold change” value (BAX) was 3.77 fold and 3.77± 0.37 fold, the “apoptotic cell death, fold vs control” value (MCF-7 cancer cells [1]) was 32.6 fold and the “cell death via necrosis, fold vs control” value (MCF-7 cancer cells [1]) was 10.8 fold. The “apoptotic cell death, total apoptosis” value (MCF-7 cancer cells [1]; control 0.51%) was 16.63%, the “cell death via necrosis” value (MCF-7 cancer cells [1]; control 0.86%) was 9.31% and the IC50 (MCF-7; [4]) was 25.8 µM. For the same compound, the “LogIC50 (Figure 4 curve fit)” value (MCF-7; MCF-7, nonlinear regression dose-inhibition curve fit) was 1.412, the IC50 (MCF-7; pure compounds, MTT, 48-h incubation, n = 3, read-out: IC50 ± SD MCF-7) was 25.8 ± 1.04 µM and the “caspase 3 mRNA level, fold change” value (caspase 3) was “≈ 5.01 fold and 5.01± 0.27 fold”. The “P53 gene mRNA level, fold change” value (P53 gene) was “≈ 3.55 fold and 3.55± 0.28 fold”, the “caspase 9 mRNA level, fold change” value (caspase 9) was 5.44 fold and 5.44± 0.49 fold and the IC50 (Normal Cells MCF-10A) was at least 50 µM. For the same compound, the pre-G1 cell population (MCF-7 cancer cells [2]; control 1.37%) was 25.94%, the G2/M cell population (MCF-7 cancer cells [2]; control 7.46%) was 26.74% and the “cell population in S” value (MCF-7 cancer cells [2]; control 34.26%) was 24.95%.

CC[C@H](CC[C@@H](C)[C@H]1CC[C@H]2[C@@H]3CCC4=CC(=O)CC[C@]4(C)[C@H]3CC[C@]12C)C(C)C [Compound 2, stigmast-4-en-3-one] showed an IC50 (MCF-7; Homo sapiens, MCF7, 48 h, read-out: IC50 ± SD MCF-7, pure compounds, MTT, 48-h incubation, n = 3) of at least 50 µM, an IC50 (A549; A549, 48 h) of 45.6 ± 0.75 µM and an IC50 (Normal Cells MCF-10A) of at least 50 µM. The IC50 (Hela; 48 h, read-out: IC50 ± SD Hela) was 32.5 ± 0.89 µM.

With CCC(CC[C@@H](C)[C@H]1CC[C@H]2[C@@H]3CC(O)C4=CC(=O)CC[C@]4(C)[C@H]3CC[C@]12C)C(C)C (stereo partly drawn) [Compound 3, 6-β-hydroxy-24-ethyl-cholest-4-en-3-one] the IC50 (MCF-7; [4]) was at least 50 µM, the IC50 (A549; [5]) was 49.9 ± 1.03 µM and the IC50 (Normal Cells MCF-10A) was at least 50 µM. It also gave an IC50 (Hela; [6]) of at least 50 µM.

For CC[C@H](CC[C@@H](C)[C@H]1CC[C@H]2[C@@H]3CC=C4C[C@@H](O)CC[C@]4(C)[C@H]3CC[C@]12C)C(C)C [Compound 5, β-sitosterol], the IC50 (HepG2; HepG2, 48 h) was at least 50 µM, the IC50 (MCF-7; Homo sapiens, MCF7, 48 h, read-out: IC50 ± SD MCF-7) was at least 50 µM and the IC50 (A549; A549, 48 h) was at least 50 µM. The IC50 (Normal Cells MCF-10A) was at least 50 µM and the IC50 (Hela; 48 h, read-out: IC50 ± SD Hela) was 42.3 ± 1.02 µM.

Work on O=c1[nH]cc(F)c(=O)[nH]1 [Compound 5-FU, 5-fluorouracil, reference compound] yielded an IC50 (HepG2; [3]) of 15.8 ± 0.28 µM, an IC50 (MCF-7; [4]) of 27 ± 0.76 µM and an IC50 (A549; [5]) of 7.47 ± 0.43 µM. For the same compound, the IC50 (Normal Cells MCF-10A) was at least 50 µM and the IC50 (Hela; [6]) was 13 ± 0.65 µM.

With CCCCCCCCCCCCCCCC(=O)OCC1OC(OC2CCC3(C)C(=CCC4C3CCC3(C)C(C(C)CCC(CC)C(C)C)CCC43)C2)C(O)C(O)C1O [Compound 6, (6’-O-palmitoyl)-sitosterol-3-O-β-D-glucoside] the IC50 (HepG2; [3]) was 42.5 ± 1.71 µM, the IC50 (MCF-7; [4]) was at least 50 µM and the IC50 (Normal Cells MCF-10A) was at least 50 µM.

Compound CCC(CCC(C)C1CCC2C3CC=C4CC(OC5OC(CO)C(O)C(O)C5O)CCC4(C)C3CCC12C)C(C)C [Compound 7, β-sitosterol-3-O-β-D-glucoside] has an IC50 (HepG2; [3]) of at least 50 µM, an IC50 (MCF-7; [4]) of 38.1 ± 0.98 µM and an IC50 (Normal Cells MCF-10A) of at least 50 µM.

Reference: paper PMC7731115, “Cytotoxic, Apoptosis-Inducing Activities, and Molecular Docking of a New Sterol from Bamboo Shoot Skin Phyllostachys heterocycla var. pubescens” (Molecules, 2020)
